Data from PubChem BioAssay AID1963961 (Molecular Pharmacology Branch, DTP, NCI, 2024).
One block for each compound: values may come before it.

Test system: K98450-129-R-PDC multicell spheroids, viability
Assay: Anticancer human tumor K98450-129-R-PDC patient-derived colon adenocarcinoma cell line growth inhibition [PI3K]
Settings: for IC50: curve of first compound; for viability, T/C: stronger effect = lower value
Outline: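 Three cell types, namely tumor cells, endothelial cells and mesenchymal stem cells, formed each spheroid. Combinations with four PI3K inhibitors were screened at clinically achievable concentrations decreasing by half-log, and spheroid viability was recorded.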

[1] = second compound 0.0316 µM, first compound 0.000316 µM
[2] = second compound 0.0316 µM, first compound 0.001 µM
[3] = second compound 0.0316 µM, first compound 0.00316 µM
[4] = second compound 0.0316 µM, first compound 0.01 µM
[5] = second compound 0.0316 µM, first compound 0.0316 µM
[6] = second compound 0.0316 µM, first compound 0.1 µM
[7] = second compound 0.1 µM, first compound 0.000316 µM
[8] = second compound 0.1 µM, first compound 0.001 µM
[9] = second compound 0.1 µM, first compound 0.00316 µM
[10] = second compound 0.1 µM, first compound 0.01 µM
[11] = second compound 0.1 µM, first compound 0.0316 µM
[12] = second compound 0.1 µM, first compound 0.1 µM
[13] = second compound 0.316 µM, first compound 0.000316 µM
[14] = second compound 0.316 µM, first compound 0.001 µM
[15] = second compound 0.316 µM, first compound 0.00316 µM
[16] = second compound 0.316 µM, first compound 0.01 µM
[17] = second compound 0.316 µM, first compound 0.0316 µM
[18] = second compound 0.316 µM, first compound 0.1 µM
[19] = second compound 1 µM, first compound 0.000316 µM
[20] = second compound 1 µM, first compound 0.001 µM
[21] = second compound 1 µM, first compound 0.00316 µM
[22] = second compound 1 µM, first compound 0.01 µM
[23] = second compound 1 µM, first compound 0.0316 µM
[24] = second compound 1 µM, first compound 0.1 µM
[25] = second compound 3.16 µM, first compound 0.000316 µM
[26] = second compound 3.16 µM, first compound 0.001 µM
[27] = second compound 3.16 µM, first compound 0.00316 µM
[28] = second compound 3.16 µM, first compound 0.01 µM
[29] = second compound 3.16 µM, first compound 0.0316 µM
[30] = second compound 3.16 µM, first compound 0.1 µM
[31] = second compound 10 µM, first compound 0.000316 µM
[32] = second compound 10 µM, first compound 0.001 µM
[33] = second compound 10 µM, first compound 0.00316 µM
[34] = second compound 10 µM, first compound 0.01 µM
[35] = second compound 10 µM, first compound 0.0316 µM
[36] = second compound 10 µM, first compound 0.1 µM
[37] = second compound 0.0316 µM, first compound 0.316 µM
[38] = second compound 0.0316 µM, first compound 1 µM
[39] = second compound 0.0316 µM, first compound 3.16 µM
[40] = second compound 0.0316 µM, first compound 10 µM
[41] = second compound 0.1 µM, first compound 0.316 µM
[42] = second compound 0.1 µM, first compound 1 µM
[43] = second compound 0.1 µM, first compound 3.16 µM
[44] = second compound 0.1 µM, first compound 10 µM
[45] = second compound 0.316 µM, first compound 0.316 µM
[46] = second compound 0.316 µM, first compound 1 µM
[47] = second compound 0.316 µM, first compound 3.16 µM
[48] = second compound 0.316 µM, first compound 10 µM
[49] = second compound 1 µM, first compound 0.316 µM
[50] = second compound 1 µM, first compound 1 µM
[51] = second compound 1 µM, first compound 3.16 µM
[52] = second compound 1 µM, first compound 10 µM
[53] = second compound 3.16 µM, first compound 0.316 µM
[54] = second compound 3.16 µM, first compound 1 µM
[55] = second compound 3.16 µM, first compound 3.16 µM
[56] = second compound 3.16 µM, first compound 10 µM
[57] = second compound 10 µM, first compound 0.316 µM
[58] = second compound 10 µM, first compound 1 µM
[59] = second compound 10 µM, first compound 3.16 µM
[60] = second compound 10 µM, first compound 10 µM
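Further: spheroids exposed to agents for seven days before read-out.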

IC50 (second compound 0.0316 µM): > 0.1 µM
IC50 (second compound 0.1 µM): > 0.1 µM
IC50 (second compound 0.316 µM): > 0.1 µM
IC50 (second compound 1 µM): > 0.1 µM
IC50 (second compound 3.16 µM): > 0.1 µM
IC50 (second compound 10 µM): > 0.1 µM
SMILES: CC(=O)c1c(C)c2cnc(Nc3ccc(N4CCNCC4)cn3)nc2n(C2CCCC2)c1=O + CC(Nc1ncnc2nc[nH]c12)c1cc2cccc(Cl)c2c(=O)n1-c1ccccc1
viability, T/C [1]: 105%
viability, T/C [2]: 100%
viability, T/C [3]: 110%
viability, T/C [4]: 99%
viability, T/C [5]: 100%
viability, T/C [6]: 86.2%
viability, T/C [7]: 109%
viability, T/C [8]: 94.8%
viability, T/C [9]: 94.2%
viability, T/C [10]: 96.1%
viability, T/C [11]: 93.1%
viability, T/C [12]: 99.3%
viability, T/C [13]: 107%
viability, T/C [14]: 106%
viability, T/C [15]: 93.7%
viability, T/C [16]: 94.8%
viability, T/C [17]: 101%
viability, T/C [18]: 81.6%
viability, T/C [19]: 102%
viability, T/C [20]: 92.3%
viability, T/C [21]: 90.2%
viability, T/C [22]: 101%
viability, T/C [23]: 101%
viability, T/C [24]: 85.8%
viability, T/C [25]: 105%
viability, T/C [26]: 97.2%
viability, T/C [27]: 87.6%
viability, T/C [28]: 94.5%
viability, T/C [29]: 96.9%
viability, T/C [30]: 89.9%
viability, T/C [31]: 92.4%
viability, T/C [32]: 96.7%
viability, T/C [33]: 74.5%
viability, T/C [34]: 82.2%
viability, T/C [35]: 103%
viability, T/C [36]: 72.2%

IC50 (second compound 0.0316 µM): > 0.1 µM
IC50 (second compound 0.1 µM): > 0.1 µM
IC50 (second compound 0.316 µM): > 0.1 µM
IC50 (second compound 1 µM): > 0.1 µM
IC50 (second compound 3.16 µM): > 0.1 µM
IC50 (second compound 10 µM): > 0.1 µM
SMILES: CC(C)n1nc(-c2ccc3oc(N)nc3c2)c2c(N)ncnc21 + CC(Nc1ncnc2nc[nH]c12)c1cc2cccc(Cl)c2c(=O)n1-c1ccccc1
viability, T/C [1]: 106%
viability, T/C [2]: 91.5%
viability, T/C [3]: 93.9%
viability, T/C [4]: 79%
viability, T/C [5]: 84.6%
viability, T/C [6]: 84.6%
viability, T/C [7]: 126%
viability, T/C [8]: 96.9%
viability, T/C [9]: 106%
viability, T/C [10]: 111%
viability, T/C [11]: 81.1%
viability, T/C [12]: 72.8%
viability, T/C [13]: 108%
viability, T/C [14]: 134%
viability, T/C [15]: 81.3%
viability, T/C [16]: 95.4%
viability, T/C [17]: 92.7%
viability, T/C [18]: 71.1%
viability, T/C [19]: 101%
viability, T/C [20]: 111%
viability, T/C [21]: 84.3%
viability, T/C [22]: 97.6%
viability, T/C [23]: 92.1%
viability, T/C [24]: 71.3%
viability, T/C [25]: 110%
viability, T/C [26]: 97.4%
viability, T/C [27]: 103%
viability, T/C [28]: 91.7%
viability, T/C [29]: 90.4%
viability, T/C [30]: 67.3%
viability, T/C [31]: 92.6%
viability, T/C [32]: 84.2%
viability, T/C [33]: 87.1%
viability, T/C [34]: 88.5%
viability, T/C [35]: 87.6%
viability, T/C [36]: 78.2%

IC50 (second compound 0.0316 µM): 5.26 µM
IC50 (second compound 0.1 µM): 5.65 µM
IC50 (second compound 0.316 µM): 5.38 µM
IC50 (second compound 1 µM): 5.29 µM
IC50 (second compound 3.16 µM): 5.48 µM
IC50 (second compound 10 µM): 5.13 µM
SMILES: CC1(C)CCC(CN2CCN(c3ccc(C(=O)NS(=O)(=O)c4ccc(NCC5CCOCC5)c([N+](=O)[O-])c4)c(Oc4cnc5[nH]ccc5c4)c3)CC2)=C(c2ccc(Cl)cc2)C1 + CC(Nc1ncnc2nc[nH]c12)c1cc2cccc(Cl)c2c(=O)n1-c1ccccc1
viability, T/C [5]: 96.2%
viability, T/C [6]: 94.7%
viability, T/C [37]: 96.2%
viability, T/C [38]: 118%
viability, T/C [39]: 84.8%
viability, T/C [40]: 6.25%
viability, T/C [11]: 100%
viability, T/C [12]: 104%
viability, T/C [41]: 105%
viability, T/C [42]: 100%
viability, T/C [43]: 97.4%
viability, T/C [44]: 3.46%
viability, T/C [17]: 135%
viability, T/C [18]: 104%
viability, T/C [45]: 94.9%
viability, T/C [46]: 98.6%
viability, T/C [47]: 94.4%
viability, T/C [48]: 3.48%
viability, T/C [23]: 87.8%
viability, T/C [24]: 116%
viability, T/C [49]: 89%
viability, T/C [50]: 88.5%
viability, T/C [51]: 87.5%
viability, T/C [52]: 3.81%
viability, T/C [29]: 85.8%
viability, T/C [30]: 105%
viability, T/C [53]: 90.4%
viability, T/C [54]: 86.1%
viability, T/C [55]: 95.8%
viability, T/C [56]: 3.31%
viability, T/C [35]: 86.4%
viability, T/C [36]: 87.6%
viability, T/C [57]: 82.9%
viability, T/C [58]: 75.3%
viability, T/C [59]: 88.1%
viability, T/C [60]: 3.12%

IC50 (second compound 0.0316 µM): 5.17 µM
IC50 (second compound 0.1 µM): 6.03 µM
IC50 (second compound 0.316 µM): 5.29 µM
IC50 (second compound 1 µM): 5.51 µM
IC50 (second compound 3.16 µM): 5.87 µM
IC50 (second compound 10 µM): 5.53 µM
SMILES: CCCS(=O)(=O)Nc1ccc(F)c(C(=O)c2c[nH]c3ncc(-c4ccc(Cl)cc4)cc23)c1F + CC(Nc1ncnc2nc[nH]c12)c1cc2cccc(Cl)c2c(=O)n1-c1ccccc1
viability, T/C [5]: 118%
viability, T/C [6]: 97.9%
viability, T/C [37]: 106%
viability, T/C [38]: 113%
viability, T/C [39]: 85.5%
viability, T/C [40]: 2.37%
viability, T/C [11]: 127%
viability, T/C [12]: 94.6%
viability, T/C [41]: 121%
viability, T/C [42]: 112%
viability, T/C [43]: 109%
viability, T/C [44]: 3.82%
viability, T/C [17]: 96.8%
viability, T/C [18]: 97.2%
viability, T/C [45]: 101%
viability, T/C [46]: 111%
viability, T/C [47]: 89%
viability, T/C [48]: 1.77%
viability, T/C [23]: 97%
viability, T/C [24]: 104%
viability, T/C [49]: 101%
viability, T/C [50]: 120%
viability, T/C [51]: 93.7%
viability, T/C [52]: 2.88%
viability, T/C [29]: 97.1%
viability, T/C [30]: 102%
viability, T/C [53]: 95.3%
viability, T/C [54]: 112%
viability, T/C [55]: 114%
viability, T/C [56]: 3.24%
viability, T/C [35]: 96.2%
viability, T/C [36]: 102%
viability, T/C [57]: 105%
viability, T/C [58]: 102%
viability, T/C [59]: 94.2%
viability, T/C [60]: 3.07%

IC50 (second compound 0.0316 µM): > 10 µM
IC50 (second compound 0.1 µM): > 10 µM
IC50 (second compound 0.316 µM): > 10 µM
IC50 (second compound 1 µM): > 10 µM
IC50 (second compound 3.16 µM): > 10 µM
IC50 (second compound 10 µM): > 10 µM
SMILES: C[C@@H](NC(=O)c1ncnc(N)c1Cl)c1ncc(C(=O)Nc2cc(C(F)(F)F)c(Cl)cn2)s1 + CC(Nc1ncnc2nc[nH]c12)c1cc2cccc(Cl)c2c(=O)n1-c1ccccc1
viability, T/C [5]: 113%
viability, T/C [6]: 108%
viability, T/C [37]: 117%
viability, T/C [38]: 124%
viability, T/C [39]: 109%
viability, T/C [40]: 104%
viability, T/C [11]: 123%
viability, T/C [12]: 106%
viability, T/C [41]: 119%
viability, T/C [42]: 108%
viability, T/C [43]: 123%
viability, T/C [44]: 96%
viability, T/C [17]: 107%
viability, T/C [18]: 118%
viability, T/C [45]: 103%
viability, T/C [46]: 108%
viability, T/C [47]: 126%
viability, T/C [48]: 96.1%
viability, T/C [23]: 115%
viability, T/C [24]: 106%
viability, T/C [49]: 102%
viability, T/C [50]: 106%
viability, T/C [51]: 126%
viability, T/C [52]: 86.8%
viability, T/C [29]: 92.3%
viability, T/C [30]: 112%
viability, T/C [53]: 95.8%
viability, T/C [54]: 120%
viability, T/C [55]: 123%
viability, T/C [56]: 101%
viability, T/C [35]: 95.5%
viability, T/C [36]: 106%
viability, T/C [57]: 90.9%
viability, T/C [58]: 103%
viability, T/C [59]: 124%
viability, T/C [60]: 78%
